Among the test systems are MDA-MB-231; ACHN; SK-OV-3; BT-549; SW-620; UACC-257; KM12; NCI-H23; SK-MEL-5; SK-MEL-28; SF-268; COLO 205; LOX IMVI; IGROV-1; A498; SK-MEL-2; SF-295; HT-29; PC-3.
Common to all, as to test: NCI-60 cell line screen, 48 h

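Assay format: 96-well plates, 48-hour exposure. GI50 is the concentration that inhibits growth by half.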 The source made the active and inactive calls. Cut-off read from the data, not from the text of the source: active = GI50 up to about 1.1 µM and inactive = higher.

`CC(=O)OCc1cc2ccccc2nc1C(Br)(Br)Br`: the GI50 is 19.3 µM (inactive) in the assay on MDA-MB-231; 13.2 µM (inactive) in the assay on ACHN; 28.3 µM (inactive) with SK-OV-3; 10.4 µM (inactive) in the assay with BT-549; 18.7 µM (inactive) in the assay on SW-620; 12.4 µM (inactive) in the assay with UACC-257. Further, the GI50 was 13 µM (inactive) in the assay on KM12; 13.6 µM (inactive) in the assay with NCI-H23; 11.1 µM (inactive) in the assay with SK-MEL-5; 17.9 µM (inactive) in the assay on SK-MEL-28; 17.8 µM (inactive) in the assay on SF-268; 19.6 µM (inactive) in the assay with COLO 205. Also, the GI50 in the assay on LOX IMVI was 11.1 µM (inactive); with IGROV-1, 12 µM (inactive); in the assay with A498, 21.2 µM (inactive); in the assay on SK-MEL-2, 18.5 µM (inactive); in the assay on SF-295, 16.4 µM (inactive); in the assay with HT-29, 21.6 µM (inactive).
With `Cc1ccc(C(=O)C#Cc2cnc(O)nc2O)cc1`, the GI50 in the assay on ACHN was 15.6 µM (inactive); with SK-OV-3 it was 25.2 µM (inactive); with SW-620 it was 8.69 µM (inactive); with UACC-257 it was 14.2 µM (inactive); in the assay on KM12, 14.7 µM (inactive); in the assay with NCI-H23 it was 17.5 µM (inactive). For the same compound, the GI50 with SK-MEL-5 was 13.6 µM (inactive); with SK-MEL-28, 16.9 µM (inactive); with SF-268, 13.1 µM (inactive); in the assay on COLO 205 it was 13 µM (inactive); in the assay on LOX IMVI, 3.92 µM (inactive); with IGROV-1, 16.7 µM (inactive). For the same compound, the GI50 is 14.7 µM (inactive) in the assay on A498, 14.4 µM (inactive) in the assay on SK-MEL-2, 29.2 µM (inactive) in the assay on SF-295 and 21.5 µM (inactive) in the assay with HT-29.
`COc1cc(OC)c(/C=C\c2ccnc3ccccc23)c(OC)c1`: the GI50 in the assay with MDA-MB-231 is 3.05 µM (inactive); in the assay on ACHN, 4.41 µM (inactive); in the assay on SK-OV-3 it was 6.44 µM (inactive); in the assay with SW-620, 3.62 µM (inactive); in the assay on UACC-257, 3.75 µM (inactive); in the assay on KM12, 0.736 µM (active). In addition, the GI50 in the assay with NCI-H23 was 5.61 µM (inactive); with SK-MEL-5, 1.7 µM (inactive); in the assay with SK-MEL-28 it was 5.37 µM (inactive); in the assay on SF-268, 5.97 µM (inactive); in the assay with COLO 205, 1.98 µM (inactive); in the assay with LOX IMVI, 2.73 µM (inactive). For the same compound, the GI50 is 5.51 µM (inactive) in the assay with PC-3; 1.45 µM (inactive) in the assay with IGROV-1; 2.88 µM (inactive) with A498; 3.88 µM (inactive) in the assay on SK-MEL-2; 2.53 µM (inactive) with SF-295; 2.67 µM (inactive) in the assay with HT-29.
As to `CCN(CCCl)c1ccc(NC(=O)c2cc(C(=O)NCCN(C)C)cc(C(=O)Nc3ccc(N(CC)CCCl)cc3)c2)cc1`, the GI50 is 15.6 µM (inactive) with MDA-MB-231; 5.25 µM (inactive) in the assay with ACHN; 4.26 µM (inactive) in the assay on SK-OV-3; 1.76 µM (inactive) in the assay with SW-620; 18.1 µM (inactive) in the assay on UACC-257; 8.65 µM (inactive) with KM12. Also, the GI50 with NCI-H23 is 3.33 µM (inactive); in the assay on SK-MEL-5, 12.3 µM (inactive); in the assay on SK-MEL-28, 16.6 µM (inactive); with SF-268, 0.891 µM (active); in the assay with LOX IMVI, 1.36 µM (inactive); in the assay with PC-3 it was 2.22 µM (inactive). The GI50 in the assay on IGROV-1 was 6.43 µM (inactive); in the assay with A498 it was 18.5 µM (inactive); in the assay with SK-MEL-2 it was 15.7 µM (inactive); in the assay with SF-295 it was 9.46 µM (inactive); in the assay with HT-29, 1.57 µM (inactive).
For the compound `O=C(CCc1ccc(O)cc1)c1c(O)cc(O)cc1OC1OC(CO)C(O)C(O)C1O` (stereo not given), the GI50 with ACHN, in the assay with SK-OV-3, in the assay on SW-620, with UACC-257, with KM12 and in the assay on NCI-H23 was > 100 µM (inactive) throughout. Besides, the GI50 in the assay with SK-MEL-5, with SK-MEL-28, in the assay on SF-268, in the assay on COLO 205, in the assay with LOX IMVI and with PC-3 was > 100 µM (inactive) each time. The GI50 in the assay on IGROV-1, in the assay with A498, with SK-MEL-2, in the assay on SF-295 and with HT-29 was > 100 µM (inactive) each time.
For `C(=N\c1ccc(-c2nc3ccccc3s2)cc1)/c1ccco1`, the GI50 with ACHN was 44.8 µM (inactive); in the assay with SK-OV-3 it was 83.8 µM (inactive); in the assay with BT-549, 83.4 µM (inactive); in the assay on SW-620 it was > 100 µM (inactive); in the assay on UACC-257 it was 43.8 µM (inactive); with KM12 it was 38 µM (inactive). Also, the GI50 with NCI-H23 was 70.6 µM (inactive); in the assay with SK-MEL-5 it was 33.5 µM (inactive); with SK-MEL-28, > 100 µM (inactive); in the assay with SF-268, 48.2 µM (inactive); in the assay on COLO 205, 87.3 µM (inactive); in the assay on LOX IMVI, 54.1 µM (inactive). In addition, the GI50 in the assay with PC-3 is 32.5 µM (inactive); with IGROV-1, 58.1 µM (inactive); in the assay with A498, 27 µM (inactive); in the assay with SK-MEL-2 it was 60.3 µM (inactive); in the assay on SF-295 it was 18.9 µM (inactive); in the assay with HT-29 it was 70 µM (inactive).
Turning to `Cc1cc(N(CCCCl)CCCCl)ccc1/C=N/c1cccc(Cl)c1`, the GI50 in the assay with MDA-MB-231 was 14 µM (inactive); with ACHN it was 13.1 µM (inactive); with SK-OV-3, 19.1 µM (inactive); in the assay with SW-620 it was 12.3 µM (inactive); in the assay with UACC-257 it was 0.428 µM (active); in the assay on KM12, 13.5 µM (inactive). Further, the GI50 in the assay with NCI-H23 was < 0.01 µM (active); in the assay on SK-MEL-5, 14.4 µM (inactive); with SK-MEL-28 it was 17.4 µM (inactive); in the assay on SF-268, 12.2 µM (inactive); with COLO 205, 11.5 µM (inactive); in the assay with LOX IMVI, 13.8 µM (inactive). For the same compound, the GI50 in the assay on PC-3 is 12 µM (inactive); in the assay with IGROV-1, 13.2 µM (inactive); with SK-MEL-2, 16.4 µM (inactive); in the assay on SF-295, 17.6 µM (inactive); with HT-29, 14.6 µM (inactive).
Consider `CN1CC(C(=O)C2C(=O)c3ccccc3C2=O)C(=O)C(=O)C(C(=O)C2C(=O)c3ccccc3C2=O)C1` (stereo not given), for which the GI50 in the assay on ACHN, in the assay on SK-OV-3, in the assay on SW-620, in the assay on UACC-257, with KM12 and in the assay on NCI-H23 was > 100 µM (inactive) in each case. Further, the GI50 with SK-MEL-28, with SF-268, with COLO 205, in the assay on LOX IMVI, in the assay on IGROV-1 and in the assay with A498 was > 100 µM (inactive) throughout. Further, the GI50 in the assay on SK-MEL-2, in the assay on SF-295 and with HT-29 was > 100 µM (inactive) each time.
Take `O=C(CC(C(=O)c1cccs1)c1cccs1)c1ccccc1Cl` (stereo not given): the GI50 is > 100 µM (inactive) with MDA-MB-231; > 100 µM (inactive) in the assay with ACHN; > 100 µM (inactive) with SK-OV-3; > 100 µM (inactive) in the assay on SW-620; 74.3 µM (inactive) in the assay with UACC-257; 93.1 µM (inactive) with KM12. For the same compound, the GI50 in the assay on NCI-H23 was 33 µM (inactive); in the assay with SK-MEL-5, > 100 µM (inactive); in the assay on SK-MEL-28 it was 81.7 µM (inactive); with SF-268 it was > 100 µM (inactive); with COLO 205, 54 µM (inactive); with LOX IMVI, > 100 µM (inactive). Moreover, the GI50 with PC-3 is 72.9 µM (inactive); in the assay on IGROV-1, > 100 µM (inactive); in the assay with A498, > 100 µM (inactive); in the assay with SK-MEL-2 it was > 100 µM (inactive); in the assay on SF-295 it was > 100 µM (inactive); in the assay with HT-29, 76.6 µM (inactive).
For the compound `Cn1c(N/N=C/c2ccccc2)nc(-c2ccc3c(c2)OCO3)c(C#N)c1=O`, the GI50 in the assay with MDA-MB-231 is 14 µM (inactive); in the assay on ACHN, 59.3 µM (inactive); in the assay on SK-OV-3, > 100 µM (inactive); with SW-620, > 100 µM (inactive); in the assay on UACC-257 it was 77.1 µM (inactive); in the assay on KM12, 88.1 µM (inactive). The GI50 was > 100 µM (inactive) in the assay with NCI-H23; 69 µM (inactive) in the assay with SK-MEL-5; > 100 µM (inactive) in the assay on SK-MEL-28; > 100 µM (inactive) in the assay with SF-268; 58.3 µM (inactive) in the assay with COLO 205; 55.6 µM (inactive) with LOX IMVI. In addition, the GI50 is 56.8 µM (inactive) in the assay on PC-3; 20.9 µM (inactive) with IGROV-1; 95.9 µM (inactive) in the assay on A498; > 100 µM (inactive) in the assay on SK-MEL-2; 84.9 µM (inactive) in the assay with SF-295; > 100 µM (inactive) in the assay on HT-29.
For `COC(=O)C1(C(=O)OC)Cc2ccc(C)cc2C2=C1C(=O)c1ccccc1C2=O`, the GI50 with MDA-MB-231 is 16.7 µM (inactive); with ACHN, 16.5 µM (inactive); with SW-620 it was 19.8 µM (inactive); with UACC-257 it was 16.5 µM (inactive); in the assay on KM12, 16.6 µM (inactive); in the assay with NCI-H23, 18.2 µM (inactive). Moreover, the GI50 in the assay with SK-MEL-5 is 15 µM (inactive); in the assay on SK-MEL-28, 16.6 µM (inactive); with SF-268, 16 µM (inactive); in the assay on LOX IMVI, 14.9 µM (inactive); with PC-3, 15.2 µM (inactive); in the assay on IGROV-1, 19.4 µM (inactive). For the same compound, the figures for the GI50 in the assay on SK-MEL-2, in the assay with SF-295 and in the assay with HT-29 were 11.7 µM (inactive), 21.2 µM (inactive) and 21.7 µM (inactive), respectively.
Regarding `CC(C)(C)C1=C(Br)C(O)(C(C)(C)C)OP1(=O)c1ccccc1` (stereo not given), the GI50 in the assay with MDA-MB-231, in the assay with ACHN, with SK-OV-3, with SW-620, in the assay with UACC-257 and in the assay with KM12 was > 100 µM (inactive) in each case. In addition, the GI50 in the assay with NCI-H23, in the assay on SK-MEL-5, in the assay with SK-MEL-28, with SF-268, with COLO 205 and with LOX IMVI was > 100 µM (inactive) each time. In addition, the GI50 in the assay on PC-3, in the assay with IGROV-1, in the assay on A498, in the assay on SK-MEL-2, in the assay on SF-295 and in the assay on HT-29 was > 100 µM (inactive) throughout.

For the origin of these results see ChEMBL document CHEMBL1201862, “PubChem BioAssay data set” (2004).
